Measured values as given in the NIST ThermoML archive (doi:10.1021/acs.jced.7b00704).
Numbers after ± are expanded uncertainties.

Assays:
[1] = Liquid, Ebulliometric method (Recirculating still)
[2] = refractive index (Na D-line) (dimensionless); conditions: Liquid, Standard Abbe refractometry

vapor or sublimation pressure ([1]; 347.58 K) [kPa]	vapor or sublimation pressure ([1]; 327.63 K) [kPa]	SMILES	vapor or sublimation pressure ([1]; 360.73 K) [kPa]	refractive index ([2]; 293.15 K, 93 kPa)	refractive index ([2]; 298.15 K, 101.33 kPa)	vapor or sublimation pressure ([1]; 372.05 K) [kPa]
–	–	COC(=O)OC [dimethyl carbonate]	93.13 ± 0.96	1.3688 ± 0.0004	1.3664 ± 0.00042	–
93.13 ± 0.95	–	CCOC(C)=O [ethyl acetate]	–	1.3724 ± 0.0004	1.3698 ± 0.00038	–
–	93.13 ± 0.96	COC(C)=O [methyl ethanoate]	–	1.3615 ± 0.0004	1.35872 ± 0.00042	–
–	–	CCCOC(C)=O [propyl ethanoate]	–	1.3843 ± 0.0005	1.38181 ± 0.00054	93.13 ± 0.97
